“And” between values parts separate entries of the source, which are not always exact repeats. Identical values can stand only once. Like-named read-outs stand apart in the source and are kept apart here. Marks after values point to notes of the source that are not given here.
Tested on: patients with ALS
[1] = 50 mg, through the end of the study
[2] = 300 mg, No Riluzole Use, through Week 28
[3] = 300 mg, Riluzole Use, through Week 28
[4] = 300 mg, any post-baseline visit
[5] = 300 mg, double-blind treatment period
[6] = 300 mg, through the end of the study
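Further: adverse event data gathered at every clinic visit and phone contact, after first study drug dose, in a blinded trial, counts of affected subjects.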

## CCCN[C@@H]1CCc2nc(N)sc2C1 [dexpramipexole, (6R)-2-amino-4,5,6,7-tetrahydro-6-(propylamino)benzothiazole]
[1]
  ≧1 serious treatment-related TEAE: 1 (2%) N (%)
  ≧1 severe TEAE: 13 N (%) and 13 (27%) N (%)
  ≧1 treatment-related TEAE: 16 (33%) N (%)
300 mg
  subjects with increase from baseline in QTcF >30 msec: 5 subjects
[2]
  AE: Anxiety: 1 (7%) N (%)
  AE: Depression: 1 (7%) N (%)
  AE: Dysarthria: 2 (13%) N (%)
  AE: Dysphagia: 2 (13%) N (%)
  AE: Fall: 4 (27%) N (%)
  AE: Muscular weakness: 3 (20%) N (%)
  AE: Nausea: 0 N (%)
  AE: Oedema peripheral: 0 N (%)
  AE: Pharyngolaryngeal pain: 1 (7%) N (%)
  AE: Salivary hypersecretion: 2 (13%) N (%)
  AE: Sinusitis: 0 N (%)
  AE: Urinary tract infection: 1 (7%) N (%)
[3]
  AE: Anxiety: 4 (14%) N (%)
  AE: Depression: 4 (14%) N (%)
  AE: Dysarthria: 3 (10%) N (%)
  AE: Dysphagia: 2 (7%) N (%)
  AE: Fall: 7 (24%) N (%)
  AE: Headache: 2 N (%) and 2 (7%) N (%)
  AE: Muscular weakness: 4 (14%) N (%)
  AE: Oedema peripheral: 1 (3%) N (%)
  AE: Pharyngolaryngeal pain: 2 (7%) N (%)
  AE: Salivary hypersecretion: 3 (10%) N (%)
  AE: Urinary tract infection: 3 (10%) N (%)
[4]
  incidence of ECGs with QTcB increased >30 msec from baseline: 30%
  subjects with QTcF interval >450 msec: 3 subjects
[5]
  AEs related to ALS as assessed by the Investigator: 80%
  hemoglobin value in 1 subject (potentially clinically significant): 7.8 g/dL
  subjects with prolonged QTcB: 3 subjects
  subjects with serum chemistry abnormalities of potential clinical significance: 4 subjects
300 mg, noted at baseline of the placebo washout period
  neutrophil count in 1 subject with neutropenia: 1180 µL⁻¹
300 mg, through Week 28
  ALS-related TEAE: Affect liability: 0 N (%)
  ALS-related TEAE: Arthralgia: 1 (2%) N (%)
  ALS-related TEAE: Choking: 0 N (%)
  ALS-related TEAE: Constipation: 4 (9%) N (%)
  ALS-related TEAE: Contusion: 1 (2%) N (%)
  ALS-related TEAE: Dehydration: 2 (5%) N (%)
  ALS-related TEAE: Depression: 1 (2%) N (%)
  ALS-related TEAE: Disease progression: 2 (5%) N (%)
  ALS-related TEAE: Dysarthria: 5 (11%) N (%)
  ALS-related TEAE: Dysphagia: 3 (7%) N (%)
  ALS-related TEAE: Dysphasia: 1 (2%) N (%)
  ALS-related TEAE: Dyspnoea: 5 (11%) N (%)
  ALS-related TEAE: Dyspnoea exertional: 2 (5%) N (%)
  ALS-related TEAE: Fall: 10 (23%) N (%)
  ALS-related TEAE: Fatigue: 2 (5%) N (%)
  ALS-related TEAE: Gastrointestinal Disorders: 11 (25%) N (%)
  ALS-related TEAE: General Disorders and Administration Site Conditions: 6 (14%) N (%)
  ALS-related TEAE: Increased upper airway secretion: 2 (5%) N (%)
  ALS-related TEAE: Injury, Poisoning and Procedural Complications: 10 (23%) N (%)
  ALS-related TEAE: Investigations: 5 (11%) N (%)
  ALS-related TEAE: Metabolism and Nutrition Disorders: 4 (9%) N (%)
  ALS-related TEAE: Muscle contractions involuntary: 2 (5%) N (%)
  ALS-related TEAE: Muscle spasticity: 1 (2%) N (%)
  ALS-related TEAE: Muscle twitching: 2 (5%) N (%)
  ALS-related TEAE: Muscular weakness: 7 (16%) N (%)
  ALS-related TEAE: Musculoskeletal and Connective Tissue Disorders: 14 (32%) N (%)
  ALS-related TEAE: Musculoskeletal pain: 3 (7%) N (%)
  ALS-related TEAE: Myalgia: 0 N (%)
  ALS-related TEAE: Neck pain: 1 (2%) N (%)
  ALS-related TEAE: Nervous System Disorders: 10 (23%) N (%)
  ALS-related TEAE: Oedema peripheral: 1 (2%) N (%)
  ALS-related TEAE: Pain in extremity: 0 N (%)
  ALS-related TEAE: Psychiatric Disorders: 1 (2%) N (%)
  ALS-related TEAE: Respiratory failure: 0 N (%)
  ALS-related TEAE: Respiratory, Thoracic and Mediastinal Disorders: 11 (25%) N (%)
  ALS-related TEAE: Salivary hypersecretion: 5 (11%) N (%)
  ALS-related TEAE: Vital capacity decreased: 1 (2%) N (%)
  ALS-related TEAE: Weight decreased: 2 (5%) N (%)
  Number of TEAEs: 303
  Number of serious TEAEs: 9
  Number of serious treatment-related TEAE: 1
  Number of severe TEAEs: 12
  Number of treatment-related TEAEs: 46
  Subjects with a TEAE with action taken of study drug discontinued: 0 N (%)
  TEAE: Anxiety: 5 (11%) N (%)
  TEAE: Arthralgia: 3 (7%) N (%)
  TEAE: Cardiac Disorders: 8 (18%) N (%)
  TEAE: Constipation: 11 (25%) N (%)
  TEAE: Cough: 5 (11%) N (%)
  TEAE: Dehydration: 3 (7%) N (%)
  TEAE: Depression: 5 (11%) N (%)
  TEAE: Dizziness: 3 (7%) N (%)
  TEAE: Dysarthria: 5 (11%) N (%)
  TEAE: Dysphagia: 4 (9%) N (%)
  TEAE: Dyspnoea: 6 (14%) N (%)
  TEAE: Fall: 11 (25%) N (%)
  TEAE: Fatigue: 2 (5%)^a N (%) and 2 (5%) N (%)
  TEAE: Gastrointestinal Disorders: 25 (57%) N (%)
  TEAE: General Disorders and Administration Site Conditions: 12 (27%) N (%)
  TEAE: Headache: 6 (14%) N (%)
  TEAE: Hyperglycaemia: 3 (7%) N (%)
  TEAE: Infections and Infestations: 17 (39%) N (%)
  TEAE: Injury, Poisoning and Procedural Complication: 12 (27%) N (%)
  TEAE: Metabolism and Nutrition Disorders: 8 (18%) N (%)
  TEAE: Muscle contractions involuntary: 2 (5%)^a N (%) and 2 (5%) N (%)
  TEAE: Muscle spasticity: 1 (2%) N (%)
  TEAE: Musculoskeletal and Connective Tissue Disorders: 19 (43%) N (%)
  TEAE: Musculoskeletal pain: 3 (7%) N (%)
  TEAE: Nausea: 3 (7%) N (%)
  TEAE: Neck pain: 4 (9%) N (%)
  TEAE: Nervous System Disorders: 18 (41%) N (%)
  TEAE: Oedema peripheral: 2 N (%) and 1 (2%) N (%)
  TEAE: Pharyngolaryngeal pain: 3 (7%) N (%)
  TEAE: Pneumonia: 1 (2%) N (%)
  TEAE: Pruritus: 0 N (%)
  TEAE: Psychiatric Disorders: 14 (32%) N (%)
  TEAE: Rash: 3 (7%) N (%)
  TEAE: Respiratory failure: 1 (2%) N (%)
  TEAE: Respiratory, Thoracic and Mediastinal Disorders: 18 (41%) N (%)
  TEAE: Salivary hypersecretion: 5 (11%) N (%)
  TEAE: Sinusitis: 5 (11%) N (%)
  TEAE: Skin and Subcutaneous Tissue Disorders: 8 (18%) N (%)
  TEAE: Tachycardia: 4 (9%) N (%)
  TEAE: Upper respiratory tract infection: 3 (7%) N (%)
  TEAE: Urinary tract infection: 4 (9%) N (%)
  TEAE: Vomiting: 0 N (%)
  serious TEAE: Acute myocardial infarction: 0 N (%)
  serious TEAE: Atrial fibrillation: 1 (2%) N (%)
  serious TEAE: Blood and Lymphatic System Disorders: 1 (2%) N (%)
  serious TEAE: Cardiac Disorders: 1 (2%) N (%)
  serious TEAE: Cardiac failure congestive: 0 N (%)
  serious TEAE: Cholecystitis acute: 1 (2%) N (%)
  serious TEAE: Concussion: 1 (2%) N (%)
  serious TEAE: Disease progression: 0 N (%)
  serious TEAE: Dyspnoea: 0 N (%)
  serious TEAE: Fall: 1 (2%) N (%)
  serious TEAE: Gastrointestinal Disorders: 0 N (%)
  serious TEAE: General Disorders and Administration Site Conditions: 0 N (%)
  serious TEAE: Hepatobiliary Disorders: 1 (2%) N (%)
  serious TEAE: Ileus: 0 N (%)
  serious TEAE: Infections and Infestations: 1 (2%) N (%)
  serious TEAE: Injury, Poisoning and Procedural Complications: 1 (2%) N (%)
  serious TEAE: Neutropenia: 1 (2%) N (%)
  serious TEAE: Pneumonia: 1 (2%) N (%)
  serious TEAE: Pneumonia aspiration: 1 (2%) N (%)
  serious TEAE: Pneumonia bacterial: 0 N (%)
  serious TEAE: Pulmonary embolism: 0 N (%)
  serious TEAE: Respiratory distress: 0 N (%)
  serious TEAE: Respiratory failure: 1 (2%) N (%)
  serious TEAE: Respiratory, Thoracic and Mediastinal Disorders: 2 (5%) N (%)
  serious TEAE: Subdural haematoma: 1 (2%) N (%)
  serious TEAE: Sudden death: 0 N (%)
  serious TEAE: Viral infection: 0 N (%)
  ≧1 TEAE with an outcome of death: 1 N (%) and 1 (2%) N (%)
  ≧1 serious TEAE (including death): 5 N (%) and 5 (11%) N (%)
  ≧1 serious treatment-related TEAE: 1 (2%) N (%)
  ≧1 severe TEAE: 6 (14%) N (%) and 6 N (%)
[6]
  Number of TEAEs: 366
  Number of serious TEAEs: 17
  Number of serious treatment-related TEAEs: 2
  Number of severe TEAEs: 23
  Number of treatment-related TEAEs: 61
  Subjects with a TEAE with action taken of study drug discontinued: 3 N (%) and 3 (7%) N (%)
  subjects with TEAEs with an outcome of death (b230 count): 5 subjects
  ≧1 TEAE with an outcome of death: 4 N (%) and 4 (9%) N (%)
  ≧1 serious TEAE (including death): 11 N (%) and 11 (25%) N (%)
  ≧1 serious treatment-related TEAE: 2 (5%) N (%)
  ≧1 severe TEAE: 13 N (%) and 13 (30%) N (%)
  ≧1 treatment-related TEAE: 18 (41%) N (%)
Total daily doses of 50 mg and 300 mg, ALS subjects
  safety and tolerability: safe and well tolerated

Source: patent US20130245081A1, “Compositions and Methods for Treating Amyotrophic Lateral Sclerosis” (priority 2009, published 2013)
